pIC50: −log10 of the molar value. Structures can show the parent of a compound that is named as a salt. Activity calls are given as the source filed them. The rule behind the calls is not given here.
What was measured:
Homo sapiens = organism: Homo sapiens; assay: Growth inhibition of normal human hematopoietic progenitor cells by colony forming assay; type: functional
[1] = Growth inhibition of JAK2 V617F mutant expressing human erythroleukemia cells after 24 hrs; type: functional, cell-based; details: Leukemia cell
[2] = Growth inhibition of JAK2 V617F mutant expressing hematopoietic progenitor cells isolated from polycythemia vera patient by colony forming assay; type: functional, cell-based; details: Homo sapiens
Jurkat = assay: Growth inhibition of human Jurkat cells after 24 hrs; type: functional, cell-based
Polycythemia vera [3] = assay: Growth inhibition of JAK2 V617F mutant expressing human polycythemia vera hematopoietic progenitor cells at 5 uM by erythroid burst-forming unit assay; type: functional, cell-based
[4] = Growth inhibition of mouse erythroleukemia cells after 24 hrs; type: functional, cell-based; details: Leukemia cell
Polycythemia vera [5] = assay: Growth inhibition of JAK2 V617F mutant deficient human polycythemia vera hematopoietic progenitor cells at 5 uM by erythroid burst-forming unit assay; type: functional, cell-based
[6] = Inhibition of formation of erythroid burst-forming units in human polycythemia vera cells at 1 uM; details: read-out: INH

pIC50 (Jurkat) | Compound | Activity (Homo sapiens) | pIC50 [1] | pIC50 [2] | Activity (Polycythemia vera [3]) | pIC50 [4] | Activity (Polycythemia vera [5]) | inhibition at 1 µM [6] [%]
5.70 | C#Cc1cccc(Nc2ncnc3cc(OCCOC)c(OCCOC)cc23)c1 [ERLOTINIB] | inactive | 5.70 | 5.30 | Active | 5.70 | inactive | –
– | Cc1ccc(NC(=O)c2ccc(CN3CCN(C)CC3)cc2)cc1Nc1nccc(-c2cccnc2)n1 [IMATINIB MESYLATE] | – | – | – | – | – | – | 73
